# From patent US20090181963A1, “3H-[1,2,3]TRIAZOLO[4,5-D]PYRIMIDINE COMPOUNDS, THEIR USE AS mTOR KINASE AND PI3 KINASE INHIBITORS, AND THEIR [sequence]” (Wyeth, priority 2008, published 2009)
# pIC50: −log10 of the molar value.
# Legend:
# PI3 Kinase α = PI3 Kinase α (Homo sapiens, UniProt P42336); assay: Fluorescence polarization assay for PI3K (PI3 Kinase α); format: biochemical; details: diC8-PI(4,5)P2 substrate, 25 μM ATP, one hour at 25° C.
# Experimental: Nunc 384 well black polypropylene fluorescent plates were used for PI3K assays. Reactions were quenched by the addition of EDTA to a final concentration of 10 μM. Final reaction volumes were 10 ml. […] Reactions were allowed to proceed for one hour at 25° C. After I hour, GST-tagged GRP1 (general receptor for phosphoinositides) PH domain fusion protein was added to a final concentration of 100 nM, and BODIPY-TMRI(1,3,4,5)P4 (Echelon) was also added to a final concentration of 5 nM. Final sample volumes were 25 μl with a final DMSO concentration of 0.8%. Assay Plates were read on PerkinElmer Envision plate readers with appropriate filters for Tamra [BODIPY-TMRI(1,3,4,5)P4]. Data obtained were used to calculate enzymatic activity and enzyme inhibition by inhibitor compounds.
# PI3 Kinase γ = PI3 Kinase γ (Homo sapiens, UniProt P48736); assay: Fluorescence polarization assay for PI3K (PI3 Kinase γ); format: biochemical; details: diC8-PI(4,5)P2 substrate, 25 μM ATP, one hour at 25° C.
# Chain of PI3 Kinase γ (P48736 whole entry): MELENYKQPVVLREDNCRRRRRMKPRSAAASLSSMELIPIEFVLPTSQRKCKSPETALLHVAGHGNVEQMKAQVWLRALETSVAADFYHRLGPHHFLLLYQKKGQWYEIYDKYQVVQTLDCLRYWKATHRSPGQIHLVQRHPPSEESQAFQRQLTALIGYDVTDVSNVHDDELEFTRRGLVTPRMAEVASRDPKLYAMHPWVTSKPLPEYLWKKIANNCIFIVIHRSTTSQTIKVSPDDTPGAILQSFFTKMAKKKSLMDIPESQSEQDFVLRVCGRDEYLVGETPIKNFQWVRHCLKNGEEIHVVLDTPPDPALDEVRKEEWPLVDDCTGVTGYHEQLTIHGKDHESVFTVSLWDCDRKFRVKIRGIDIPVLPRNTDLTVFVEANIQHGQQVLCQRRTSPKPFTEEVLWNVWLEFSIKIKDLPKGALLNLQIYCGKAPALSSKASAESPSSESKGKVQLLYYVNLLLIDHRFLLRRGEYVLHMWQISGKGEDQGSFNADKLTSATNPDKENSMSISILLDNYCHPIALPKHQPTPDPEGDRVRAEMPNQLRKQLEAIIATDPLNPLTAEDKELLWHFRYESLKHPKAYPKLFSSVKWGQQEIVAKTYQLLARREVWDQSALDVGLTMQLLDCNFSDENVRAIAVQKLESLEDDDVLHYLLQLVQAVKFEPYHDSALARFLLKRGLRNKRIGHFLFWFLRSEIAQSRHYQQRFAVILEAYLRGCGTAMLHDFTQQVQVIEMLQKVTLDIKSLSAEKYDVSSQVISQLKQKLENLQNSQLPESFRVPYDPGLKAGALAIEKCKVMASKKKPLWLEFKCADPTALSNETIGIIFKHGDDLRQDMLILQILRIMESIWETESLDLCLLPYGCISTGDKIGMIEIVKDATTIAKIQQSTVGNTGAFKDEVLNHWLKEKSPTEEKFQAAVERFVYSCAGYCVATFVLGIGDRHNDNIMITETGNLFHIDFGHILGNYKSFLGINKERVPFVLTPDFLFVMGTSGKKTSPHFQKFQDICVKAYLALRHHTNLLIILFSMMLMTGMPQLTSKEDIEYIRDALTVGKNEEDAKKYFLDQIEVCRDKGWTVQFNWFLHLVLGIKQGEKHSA
# Chain of PI3 Kinase α (P42336 whole entry): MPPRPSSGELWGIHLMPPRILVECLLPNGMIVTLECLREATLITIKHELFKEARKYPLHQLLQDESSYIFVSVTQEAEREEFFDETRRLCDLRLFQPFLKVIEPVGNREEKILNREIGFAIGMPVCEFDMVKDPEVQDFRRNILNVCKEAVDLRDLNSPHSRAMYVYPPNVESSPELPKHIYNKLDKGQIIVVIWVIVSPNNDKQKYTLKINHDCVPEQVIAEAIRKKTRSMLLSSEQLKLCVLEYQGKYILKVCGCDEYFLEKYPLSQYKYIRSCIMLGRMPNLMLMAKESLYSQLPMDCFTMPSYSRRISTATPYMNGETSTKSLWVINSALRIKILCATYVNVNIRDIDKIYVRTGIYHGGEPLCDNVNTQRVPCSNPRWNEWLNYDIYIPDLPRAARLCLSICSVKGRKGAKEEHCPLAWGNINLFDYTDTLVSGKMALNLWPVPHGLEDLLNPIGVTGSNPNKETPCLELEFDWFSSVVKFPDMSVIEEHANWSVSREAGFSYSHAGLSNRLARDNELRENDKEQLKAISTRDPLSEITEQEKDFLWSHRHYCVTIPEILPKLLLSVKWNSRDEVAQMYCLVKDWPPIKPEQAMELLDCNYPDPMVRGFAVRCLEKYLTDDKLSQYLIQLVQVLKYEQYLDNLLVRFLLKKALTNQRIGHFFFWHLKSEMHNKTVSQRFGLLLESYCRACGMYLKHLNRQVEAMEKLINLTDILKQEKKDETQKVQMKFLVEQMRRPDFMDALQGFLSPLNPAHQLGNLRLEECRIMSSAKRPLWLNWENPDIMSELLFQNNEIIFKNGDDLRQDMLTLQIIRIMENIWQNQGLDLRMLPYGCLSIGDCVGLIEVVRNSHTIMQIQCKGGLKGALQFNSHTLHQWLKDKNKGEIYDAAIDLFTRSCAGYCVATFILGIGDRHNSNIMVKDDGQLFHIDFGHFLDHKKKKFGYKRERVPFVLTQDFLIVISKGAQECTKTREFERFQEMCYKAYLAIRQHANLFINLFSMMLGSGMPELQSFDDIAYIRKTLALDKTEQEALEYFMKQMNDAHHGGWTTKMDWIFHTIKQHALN
# Chain of PI3 Kinase α (P27986 whole entry partner): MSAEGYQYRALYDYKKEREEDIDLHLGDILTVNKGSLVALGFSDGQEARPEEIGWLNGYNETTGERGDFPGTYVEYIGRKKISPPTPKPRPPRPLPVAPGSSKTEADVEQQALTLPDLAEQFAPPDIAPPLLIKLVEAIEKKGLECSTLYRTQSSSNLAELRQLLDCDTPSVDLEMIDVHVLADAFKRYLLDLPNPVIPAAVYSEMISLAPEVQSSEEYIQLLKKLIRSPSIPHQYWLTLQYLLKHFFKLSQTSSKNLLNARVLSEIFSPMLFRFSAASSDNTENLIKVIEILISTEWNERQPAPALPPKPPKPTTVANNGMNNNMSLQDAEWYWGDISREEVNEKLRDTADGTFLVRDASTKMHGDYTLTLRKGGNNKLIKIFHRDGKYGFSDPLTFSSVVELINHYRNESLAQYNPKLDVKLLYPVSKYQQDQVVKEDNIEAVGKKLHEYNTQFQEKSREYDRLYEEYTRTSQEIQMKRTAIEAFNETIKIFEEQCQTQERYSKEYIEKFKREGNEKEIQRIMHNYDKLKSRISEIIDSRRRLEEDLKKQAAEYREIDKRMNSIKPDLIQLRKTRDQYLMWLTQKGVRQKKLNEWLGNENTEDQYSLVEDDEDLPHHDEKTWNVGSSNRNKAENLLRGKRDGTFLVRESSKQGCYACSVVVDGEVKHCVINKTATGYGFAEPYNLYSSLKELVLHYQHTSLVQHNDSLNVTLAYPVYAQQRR
Molecule,pIC50 (PI3 Kinase α),pIC50 (PI3 Kinase γ)
"CCn1nnc2c(N3CCOCC3)nc(-c3ccc(N)cc3)nc21 [Example 32, 4-(3-Ethyl-7-morpholin-4-yl-3H-[1,2,3]triazolo[4,5-d]pyrimidin-5-yl)-phenylamine]",6.26,5.39
"O=C(Nc1ccccc1)Nc1ccc(-c2nc(N3CCOCC3)c3nnn(CC4CN(Cc5ccc(F)cc5)C4)c3n2)cc1 [Example 192, 1-[4-(3-{[1-(4-fluorobenzyl)azetidin-3-yl]methyl}-7-morpholin-4-yl-3H-[1,2,3]triazolo[4,5-d]pyrimidin-5-yl)phenyl]-3-phenylurea]",6.83,6.26
"CN(C)CCCNC(=O)c1ccc(Cn2nnc3c(N4CCOCC4)nc(-c4cccc(O)c4)nc32)cc1 [Example 215, N-[3-(dimethylamino)propyl]-4-{[5-(3-hydroxyphenyl)-7-morpholin-4-yl-3H-[1,2,3]triazolo[4,5-d]pyrimidin-3-yl]methyl}benzamide]",6.47,5.39
"O=C(NCCCN1CCCC1)c1ccc(Cn2nnc3c(N4CCOCC4)nc(-c4cccc(O)c4)nc32)cc1 [Example 211, 4-{[5-(3-hydroxyphenyl)-7-morpholin-4-yl-3H-[1,2,3]triazolo[4,5-d]pyrimidin-3-yl]methyl}-N-(3-pyrrolidin-1-ylpropyl)benzamide]",6.54,5.56
"O=C(NC1CC1)c1ccc(Cn2nnc3c(N4CCOCC4)nc(-c4cccc(O)c4)nc32)cc1 [Example 221, N-cyclopropyl-4-{[5-(3-hydroxyphenyl)-7-morpholin-4-yl-3H-[1,2,3]triazolo[4,5-d]pyrimidin-3-yl]methyl}benzamide]",6.52,5.93
"NC(=O)Cn1nnc2c(N3CCOCC3)nc(-c3cccc(CO)c3)nc21 [Example 237, 2-{5-[3-(hydroxymethyl)phenyl]-7-morpholin-4-yl-3H-[1,2,3]triazolo[4,5-d]pyrimidin-3-yl}acetamide]",6.34,5.59
"CCCCN1CCC(n2nnc3c(N4CCOCC4)nc(-c4ccc(NC(=O)NCCN(C)C)cc4)nc32)CC1 [Example 159, 1-(4-(3-(1-butylpiperidin-4-yl)-7-morpholino-3H-[1,2,3]triazolo[4,5-d]pyrimidin-5-yl)phenyl)-3-(2-(dimethylamino)ethyl)urea]",6.78,6.16
"CC(C)(C)OC(=O)N1CCC(n2nnc3c(N4CCOCC4)nc(-c4ccc(NC(=O)Nc5ccc(F)cc5)cc4)nc32)CC1 [Example 165, tert-butyl 4-[5-(4-{[(4-fluorophenyl)carbamoyl]amino}phenyl)-7-morpholin-4-yl-3H-[1,2,3]triazolo[4,5-d]pyrimidin-3-yl]piperidine-1-carboxylate]",6.82,5.45
"OCc1cccc(-c2nc(N3CCOCC3)c3nnn(CCCN4CCCC4)c3n2)c1 [Example 10, {3-[7-morpholin-4-yl-3-(3-pyrrolidin-1-ylpropyl)-3H-[1,2,3]triazolo[4,5-d]pyrimidin-5-yl]phenyl}methanol]",6.88,6.81
"Oc1cccc(-c2nc(N3CCOCC3)c3nnn(CCN4CCCCC4)c3n2)c1 [Example 195, 3-[7-Morpholin-4-yl-3-(2-piperidin-1-ylethyl)-3H-[1,2,3]triazolo[4,5-d]pyrimidin-5-yl]phenol]",6.16,5.28
"CCn1nnc2c(N3CCOCC3)nc(-c3ccc(NC(=O)NC4CCNCC4)cc3)nc21 [Example 66, 1-[4-(3-ethyl-7-morpholin-4-yl-3H-[1,2,3]triazolo[4,5-d]pyrimidin-5-yl)phenyl]-3-piperidin-4-ylurea]",6.40,5.56
"CN1CCC(n2nnc3c(N4CCOCC4)nc(-c4cncc(O)c4)nc32)CC1 [Example 22, 5-[3-(1-methylpiperidin-4-yl)-7-morpholin-4-yl-3H-[1,2,3]triazolo[4,5-d]pyrimidin-5-yl]pyridin-3-ol]",6.52,6.50
"CNC(=O)Nc1ccc(-c2nc(N3CCOCC3)c3nnn(C4CCN(C(=O)OC(C)(C)C)CC4)c3n2)cc1 [Example 168, tert-butyl 4-(5-{4-[(methylcarbamoyl)amino]phenyl}-7-morpholin-4-yl-3H-[1,2,3]triazolo[4,5-d]pyrimidin-3-yl)piperidine-1-carboxylate]",6.70,5.49

# These reach a higher pIC50 (PI3 Kinase α). Values come first.
pIC50 (PI3 Kinase α),pIC50 (PI3 Kinase γ),Molecule
7.63,7.07,"CCn1nnc2c(N3CCOCC3)nc(-c3ccc(NC(=O)Nc4ccc(C(=O)OC)cc4)cc3)nc21 [Example 41, methyl 4-({[4-(3-ethyl-7-morpholin-4-yl-3H-[1,2,3]triazolo[4,5-d]pyrimidin-5-yl)phenyl]carbamoyl}amino)benzoate]"
> 8.57,8.05,"CCn1nnc2c(N3CCOCC3)nc(-c3ccc(NC(=O)Nc4ccc(C(=O)NCCCN(C)C)cc4)cc3)nc21 [Example 47, N-[3-(dimethylamino)propyl]-4-({[4-(3-ethyl-7-morpholin-4-yl-3H-[1,2,3]triazolo[4,5-d]pyrimidin-5-yl)phenyl]carbamoyl}amino)benzamide]"
7.10,6.77,"Oc1cncc(-c2nc(N3CCOCC3)c3nnn(C4CCNCC4)c3n2)c1 [Example 12, 5-(7-morpholin-4-yl-3-piperidin-4-yl-3H-[1,2,3]triazolo[4,5-d]pyrimidin-5-yl)pyridin-3-ol]"
7.07,6.66,"Cn1cncc1CN1CCC(n2nnc3c(N4CCOCC4)nc(-c4cncc(O)c4)nc32)CC1 [Example 24, 5-(3-{1-[(1-methyl-1H-imidazol-5-yl)methyl]piperidin-4-yl}-7-morpholin-4-yl-3H-[1,2,3]triazolo[4,5-d]pyrimidin-5-yl)pyridin-3-ol]"
7.12,6.58,"Oc1cncc(-c2nc(N3CCOCC3)c3nnn(C4CCN(Cc5ccc(F)c(F)c5)CC4)c3n2)c1 [Example 18, 5-{3-[1-(3,4-difluorobenzyl)piperidin-4-yl]-7-morpholin-4-yl-3H-[1,2,3]triazolo[4,5-d]pyrimidin-5-yl}pyridin-3-ol]"
8.22,7.48,"CCCCNC(=O)c1ccc(NC(=O)Nc2ccc(-c3nc(N4CCOCC4)c4nnn(CC)c4n3)cc2)cc1 [Example 62, N-butyl-4-({[4-(3-ethyl-7-morpholin-4-yl-3H-[1,2,3]triazolo[4,5-d]pyrimidin-5-yl)phenyl]carbamoyl}amino)benzamide]"
7.85,7.35,"COc1ccc(NC(=O)Nc2ccc(-c3nc(N4CCOCC4)c4nnn(CCO)c4n3)cc2)cc1 [Example 185, 1-{4-[3-(2-hydroxyethyl)-7-morpholin-4-yl-3H-[1,2,3]triazolo[4,5-d]pyrimidin-5-yl]phenyl}-3-(4-methoxyphenyl)urea]"
7.37,6.87,"O=C(NCCc1c[nH]c2ccccc12)c1ccc(Cn2nnc3c(N4CCOCC4)nc(-c4cccc(O)c4)nc32)cc1 [Example 225, 4-{[5-(3-hydroxyphenyl)-7-morpholin-4-yl-3H-[1,2,3]triazolo[4,5-d]pyrimidin-3-yl]methyl}-N-[2-(1H-indol-3-yl)ethyl]benzamide]"
8.28,7.70,"1-{4-[3-(2-hydroxyethyl)-7-morpholin-4-yl-3H-[1,2,3]triazolo[4,5-d]pyrimidin-5-yl]phenyl}-3-pyridin-4-ylurea [Example 183]"
8.10,7.43,"CCn1nnc2c(N3CCOCC3)nc(-c3ccc(NC(=O)Nc4ccnc(C)c4)cc3)nc21 [Example 35, 1-[4-(3-ethyl-7-morpholin-4-yl-3H-[1,2,3]triazolo[4,5-d]pyrimidin-5-yl)phenyl]-3-(2-methylpyridin-4-yl)urea]"
8.60,7.59,"CCN1CCCC1CNC(=O)c1ccc(NC(=O)Nc2ccc(-c3nc(N4CCOCC4)c4nnn(CC)c4n3)cc2)cc1 (stereo not drawn) [Example 59, 4-({[4-(3-ethyl-7-morpholin-4-yl-3H-[1,2,3]triazolo[4,5-d]pyrimidin-5-yl)phenyl]carbamoyl}amino)-N-[(1-ethylpyrrolidin-2-yl)methyl]benzamide]"
8.19,7.52,"O=C(Nc1ccc(-c2nc(N3CCOCC3)c3nnn(CC(F)(F)F)c3n2)cc1)Nc1cccs1 [Example 141, 1-{4-[7-morpholin-4-yl-3-(2,2,2-trifluoroethyl)-3H-[1,2,3]triazolo[4,5-d]pyrimidin-5-yl]phenyl}-3-(2-thienyl)urea]"
7.52,6.81,"CC(C)(C)OC(=O)N1CC(n2nnc3c(N4CCOCC4)nc(-c4ccc(NC(=O)Nc5ccncc5)cc4)nc32)C1 [Example 129, tert-butyl 3-(7-morpholin-4-yl-5-{4-[(pyridin-4-ylcarbamoyl)amino]phenyl}-3H-[1,2,3]triazolo[4,5-d]pyrimidin-3-yl)azetidine-1-carboxylate]"
7.58,6.93,"CNCCNC(=O)Nc1ccc(-c2nc(N3CCOCC3)c3nnn(CC(F)(F)F)c3n2)cc1 [Example 140, 1-[2-(methylamino)ethyl]-3-{4-[7-morpholin-4-yl-3-(2,2,2-trifluoroethyl)-3H-[1,2,3]triazolo[4,5-d]pyrimidin-5-yl]phenyl}urea]"
8.60,7.74,"CC(C)n1nnc2c(N3CCOCC3)nc(-c3ccc(NC(=O)Nc4ccc(C(N)=O)cc4)cc3)nc21 [Example 93, 4-{3-[4-(3-isopropyl-7-morpholin-4-yl-3H-[1,2,3]triazolo[4,5-d]pyrimidin-5-yl)-phenyl]-ureido}-benzamide]"
7.23,6.73,"COC(Cn1nnc2c(N3CCOCC3)nc(-c3ccc(NC(=O)Nc4cccnc4)cc3)nc21)OC [Example 181, 1-{4-[3-(2,2-dimethoxyethyl)-7-morpholin-4-yl-3H-[1,2,3]triazolo[4,5-d]pyrimidin-5-yl]phenyl}-3-pyridin-3-ylurea]"
> 8.74,8.15,"CCn1nnc2c(N3CCOCC3)nc(-c3ccc(NC(=O)Nc4ccc(C(=O)N5CCN[C@H](C)C5)cc4)cc3)nc21 [Example 54, 1-[4-(3-ethyl-7-morpholin-4-yl-3H-[1,2,3]triazolo[4,5-d]pyrimidin-5-yl)phenyl]-3-(4-{[(3R)-3-methylpiperazin-1-yl]carbonyl}phenyl)urea]"
